Read-outs that look alike come from different tables or passages of the source.
What was measured:
[1] = test system: lung cancer; settings: all lung cancer patients, not selected for mutant EGFR; cited from earlier work
[2] = test system: activated and resistant T790M forms of EGFR; assay: In vitro cellular assays, overall statement; type: cell-based; settings: result in words
Experimental: (§1) Effects of test compounds on in vitro proliferation were measured by MTS cell viability assay.

[3] = test system: EGFR (T790M, L858R) (h); type: biochemical, human
Experimental: (§2) Assay conditions included 10 μM ATP and 100 nM test compounds.
(§3) All reactions are initiated by the addition of the MgATP mix. After incubation for 40 minutes at room temperature, the reaction is stopped by the addition of 3% phosphoric acid solution. 10 μL of the reaction is then spotted onto a P30 filtermat and washed three times for 5 minutes in 75 mM phosphoric acid and once in methanol prior to drying and scintillation counting. […] The experiment is carried out in duplicate. The value for the control sample (DMSO) was set to 100%, and the values for the compound-treated samples were expressed as activity relative to the control sample.
(§4) (specific activity approx. 500 cpm/pmol, concentration as required) and 0.1 μM test compound.

[4] = test system: EGFR (L858R) (h); type: biochemical, human
Experimental: as §2, §3, §4

[5] = test system: EGFR (T790M) (h); type: biochemical, human
Experimental: as §2
(§5) All reactions are initiated by the addition of the MgATP mix. After incubation for 40 minutes at room temperature, the reaction is stopped by the addition of 3% phosphoric acid solution. 10 μL of the reaction is then spotted onto a P30 filtermat and washed three times for 5 minutes in 75 mM phosphoric acid and once in methanol prior to drying and scintillation counting. This assay is performed by Millipore. The experiment is carried out in duplicate. The value for the control sample (DMSO) was set to 100%, and the values for the compound-treated samples were expressed as activity relative to the control sample.

[6] = test system: EGFR (h); type: biochemical, human
Experimental: as §2, §3, §4

[7] = test system: ALK (h); type: biochemical, human; settings: 0.1 μM test compound, 10 μM ATP; remaining activity relative to DMSO control = 100%
Experimental: as §2, §5

[8] = test system: A431 (EGFR WT) cells; assay: Cell proliferation assay (MTS cell viability); type: cell-based; settings: Homo sapiens, A-431, 72 h, 3 days of exposure
Experimental: as §1
A431 cells were maintained in DMEM (Gibco) supplemented with 10% FBS, 100 units/mL penicillin, 100 units/mL streptomycin, and 2 mM glutamine.
2. Prepare test compounds in each well with a final medium volume of 200 μl;
3. Incubate for 3 days of exposure;
4. Prepare reagents following the instructions in the Cell Proliferation Assay kit (Promega);
5. Change to serum-free medium with a final volume of 100 μl/well. Prepare a set of wells with medium only for background subtraction;
6. Add 20 μl MTS solution containing PMS to each well (final concentration of MTS will be 0.33 mg/ml);
7. Incubate 1 to 4 hours at 37° C. in a humidified, 5% CO2 atmosphere.
8. Record absorbance at 490 nm using VICTOR™X5 plate reader (PerkinElmer).
(§6) All experimental points were set up in three wells and all experiments were repeated at least three times.

[9] = test system: H1975 (EGFR L858R/T790M) NSCLC cells; assay: Cell proliferation assay (MTS cell viability); type: cell-based; settings: Homo sapiens, NCI-H1975, 72 h, 3 days of exposure
Experimental: as §1
(§7) Prepare test compounds in each well with a final medium volume of 200 μl;
Incubate for 3 days of exposure;
(§8) Prepare reagents following the instructions in the Cell Proliferation Assay kit (Promega);
(§9) Change to serum-free medium with a final volume of 100 μl/well. Prepare a set of wells with medium only for background subtraction;
(§10) Add 20 μl MTS solution containing PMS to each well (final concentration of MTS will be 0.33 mg/ml);
(§11) Incubate 1 to 4 hours at 37° C. in a humidified, 5% CO2 atmosphere.
(§12) Record absorbance at 490 nm using VICTOR™X5 plate reader (PerkinElmer).
as §6

[10] = test system: A549 (EGFR WT) NSCLC cells; assay: Cell proliferation assay (MTS cell viability); type: cell-based; settings: Homo sapiens, 72 h, 3 days of exposure
Experimental: as §1
A549 cells were maintained in Ham's F12K medium (Gibco) supplemented with 10% FBS, 100 units/mL penicillin, 100 units/mL streptomycin, and 2 mM glutamine.
as §7
Incubate for 3 days of exposure;
as §8, §9, §10, §11, §12, §6

[11] = test system: HCC827 (EGFR Del) NSCLC cells; assay: Cell proliferation assay (MTS cell viability); type: cell-based; settings: Homo sapiens, 72 h, 3 days of exposure
Experimental: as §1, §7
Incubate for 3 days of exposure;
as §8, §9, §10, §11, §12, §6

[12] = 0.1 μM test compound, 10 μM ATP, remaining activity relative to DMSO control = 100%

For `C#Cc1cccc(Nc2ncnc3cc(OCCOC)c(OCCOC)cc23)c1` [erlotinib], the “likelihood of tumor shrinkage (response rate)” value [1] is given as 8-10% and the “median time to tumor progression” value [1] is given as “approximately 2 months”.
With `C=C(CN1CCOCC1)C(=O)Nc1cccc(Nc2ncc(Cl)c(Nc3ccccc3C(=O)C(=O)N(C)C)n2)c1` [Example 112, N-(3-(5-chloro-4-(2-(2-(dimethylamino)-2-oxoacetyl)phenylamino)pyrimidin-2-ylamino)phenyl)-2-(morpholinomethyl)acrylamide] the “activity against both activated and resistant T790M forms of EGFR in vitro cellular assays” value [2] was “potent activity”, the “Activity (control) % EGFR (T790M, L858R) (h)” value [3, 12] was 1% and the “Activity (control) % EGFR (L858R) (h)” value [4, 12] was 66%. The “Activity (control) % EGFR (T790M) (h)” value [5, 12] was 14%, the “Activity (control) % EGFR (h)” value [6, 12] was 85% and the “Activity (control) % ALK (h)” value [7] was 21%.
With `COc1cc(Nc2ncc(Cl)c(Nc3ccccc3C(=O)C(=O)N(C)C)n2)ccc1N1CCC(N(C)C)CC1` [Example 118, 2-(2-(5-chloro-2-(4-(4-(dimethylamino)piperidin-1-yl)-3-methoxyphenylamino)pyrimidin-4-ylamino)phenyl)-N,N-dimethyl-2-oxoacetamide] the “activity against both activated and resistant T790M forms of EGFR in vitro cellular assays” value [2] was “potent activity”, the “Activity (control) % EGFR (T790M, L858R) (h)” value [3] was 2% and the “Activity (control) % EGFR (L858R) (h)” value [4] was 29%. The “Activity (control) % EGFR (T790M) (h)” value [5] was 18%, the “Activity (control) % EGFR (h)” value [6] was 82% and the “Activity (control) % ALK (h)” value [7] was 3%.
`C=CC(=O)Nc1cc(Nc2ncc(Cl)c(Nc3ccccc3C(=O)C(=O)N(C)C)n2)c(OC)cc1N1CCN(C)CC1` [Example 74, N-(5-(5-chloro-4-(2-(2-(dimethylamino)-2-oxoacetyl)phenylamino)pyrimidin-2-ylamino)-4-methoxy-2-(4-methylpiperazin-1-yl)phenyl)acrylamide] showed an IC50 [8] of 50 nM, an IC50 [9] of 50 nM and an IC50 [10] of 620 nM. For the same molecule, the “Activity (control) % EGFR (T790M) (h)” value [5] was 62%, the “Activity (control) % EGFR (h)” value [6] was 110% and the IC50 [11] was 30 nM. For the same molecule, the “Activity (control) % ALK (h)” value [7] was 9%.

Source: patent US9783524B2, “Protein tyrosine kinase modulators and methods of use” (BETTA PHARMACEUTICALS CO., LTD., priority 2013, dated 2017)
